According to PubChem BioAssay AID720589 (Broad Institute, 2013):
Calls of active or inactive are those of the source.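 How the source made its calls: active means fitted curve drops below -35% activity at a concentration within twice the top valid tested dose; inconclusive means no clear call, values can overlap the other calls; inactive means signal rising instead of falling, among other cases.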

Assay: HepG2 hepatoma cell cytotoxicity, dose response, cytotoxicity control, CellTiter-Glo luminescence, cherry-pick, set 3 (AID 720589)
Conditions: HepG2 viability, ATP luminescence (CellTiter-Glo), 72 h, hits give low values
[1] = at 0.011 µM, 0% = untreated, negative = ATP loss
[2] = at 0.3 µM, 0% = untreated, negative = ATP loss
[3] = at 0.035 µM, 0% = untreated, negative = ATP loss
[4] = at 26 µM, 0% = untreated, negative = ATP loss
[5] = at 0.1 µM, 0% = untreated, negative = ATP loss
[6] = at 8 µM, 0% = untreated, negative = ATP loss
[7] = at 2.85 µM, 0% = untreated, negative = ATP loss
[8] = at 0.9 µM, 0% = untreated, negative = ATP loss

CC(=O)Nc1cccc(-c2ccnc3c2CC(C)(C(=O)NCc2ccc(N(C)C)cc2)O3)c1 (stereo not given)
max activity [1]: 32.9% (inactive)

CC(C)(C)c1ccc(Oc2ccc(NC(=O)c3ccccc3C(=O)O)cn2)cc1
max activity [2]: -40.7% (inactive)

O=C(O)CN1C(=O)/C(=C\c2ccccc2OCc2ccc(Cl)cc2Cl)SC1=S
max activity [3]: -18.9% (inactive)

CCCCCCCCn1c2c(c(=N)c3c1CCC3)CCCC2
max activity [4]: -46.7% (inactive)

COC(=O)CC1(C(=O)OC)Oc2ccc(Br)cc2C(=O)N1c1cccc(Cl)c1Cl (stereo not given)
max activity [4]: -23% (inactive)

CCOc1ccc(-c2cc(CCCC(=O)N3CCN(c4ccc(OC)cc4)CC3)no2)cc1
max activity [1]: -25.4% (inactive)

CC(=NNc1ccc2ccccc2n1)c1ccccc1O
max activity [1]: -35.4% (inactive)

CC(=O)Nc1cc(C(=O)NCc2ccco2)ccc1Sc1ccc(F)cc1
max activity [5]: -21.9% (inactive)

COc1ccccc1N(/N=C1\Sc2ccccc2C1=O)C(C)=O
max activity [1]: -37.6% (inactive)

Cc1cc(C)cc(OCC(=O)OCC(=O)Nc2cc(S(=O)(=O)N3CCOCC3)ccc2C)c1
max activity [5]: -15.3% (inactive)

COC(=O)Cc1ccc(NC(=O)c2ccccc2Cl)cc1
max activity [5]: -26.9% (inactive)

COC(=O)[C@H]1[C@H](CO)[C@H]2Cn3c(ccc(-c4ccccc4F)c3=O)[C@@H]1N2CC1CCCC1
max activity (at 0.9 µM): -23.4% (inactive)

COc1ccc(S(=O)(=O)N=Nc2c(O)[nH]c3ccccc23)cc1
max activity [4]: -27.4% (inactive)

CCCn1c(C)cc(C(=O)CN2C(=O)c3ccccc3S2(=O)=O)c1C
max activity [3]: 5.3% (inactive)

Nc1ccc2c(c1)OC1(CCCC1)O2
max activity [6]: -32.8% (inactive)

S=C(NCCN1CCOCC1)Nc1ccccc1Cl
max activity [3]: -36.4% (inactive)

Oc1c(Cl)cc(Cl)c(Cl)c1Cc1c(O)c(Cl)cc(Cl)c1Cl
max activity [7]: -40.1% (inactive)

Nc1nc2cc3c(cc2cc1C(=O)NCCc1c[nH]c2ccccc12)OCO3
max activity [6]: -32.5% (inactive)

Cc1ccsc1C(=O)OCC(=O)NCCC1=CCCCC1
max activity [1]: -13% (inactive)

COc1ccccc1CNC(=O)C[C@@H]1CC[C@H]2[C@@H](COC[C@H](O)CN2C(=O)Nc2ccc(C(F)(F)F)cc2)O1
max activity [6]: -30.7% (inactive)

O=C(/C=C/c1ccc(Cl)cc1Cl)N(Cc1ccc(Cl)cc1)C1CCS(=O)(=O)C1 (stereo not given)
max activity [4]: 14% (inactive)

COc1cc(-c2coc3c(C(=O)NCc4ccc(C(F)(F)F)cc4)cccc23)ccc1O
max activity [7]: -25.6% (inactive)

O=C1CCCC2=C1C(c1ccccn1)Nc1ccc(C(=O)c3ccccc3)cc1N2 (stereo not given)
max activity [1]: 38.6% (inactive)

Cc1noc(C)c1C(=O)Nc1sccc1C(N)=O
max activity [5]: -22.6% (inactive)

COc1ccc(C(=O)CN2C(=O)c3ccccc3S2(=O)=O)cc1
max activity [4]: 10.2% (inactive)

Cc1ccc2nc(-c3ccccc3)nn2c1
max activity [4]: -45.7% (inactive)

COc1ccc(Cl)cc1S(=O)(=O)Nc1ccc2c(c1)n(C)c(=O)n2C
max activity [4]: -15.6% (inactive)

COc1ccc(C(=O)OCC(=O)Nc2ccc(Cl)c(C(F)(F)F)c2)c(OC)c1OC
max activity [1]: -15% (inactive)

COc1ccc(/C=C2\SC(=S)N(CCCC(=O)NNC(=O)c3ccccc3O)C2=O)cc1
max activity [3]: -21.1% (inactive)

CCOc1ccccc1CNC(=O)c1ccc(Sc2ccc(Cl)cc2)c(NC(C)=O)c1
max activity [2]: -29.5% (inactive)

CC(=O)c1ccc(NC(=O)c2noc3c2CCC3)cc1
max activity [5]: -34.6% (inactive)

COC(=O)C[C@H]1CC[C@H]2[C@@H](COc3ccc(NC(=O)Nc4cccc(Cl)c4)cc3C(=O)N2C)O1
max activity [2]: -27.3% (inactive)

COC(=O)C[C@@H]1CC[C@@H]2[C@H](COc3ccc(NC(=O)Nc4cccc(Cl)c4)cc3C(=O)N2C)O1
max activity [8]: -25.8% (inactive)

CCCc1nc2ccc(NC(=O)c3cccs3)cc2c(=O)n1Cc1ccccc1Cl
max activity [7]: -32.5% (inactive)

COc1ccc(CNc2ncc(-c3ccc(F)cc3)n2C)c2ccccc12
max activity [4]: -23.1% (inactive)

O=c1c2ccccc2oc2ccc(C#CC3(O)CCCCC3)cc12
max activity [3]: -33.7% (inactive)

COC(=O)C[C@@H]1CC[C@@H]2[C@H](COc3ccc(NC(=O)c4cc(F)cc(F)c4)cc3C(=O)N2C)O1
max activity [1]: -46.8% (inactive)

COc1ccc(CN(C)c2ncnc3sccc23)c(OC)c1OC
max activity [2]: -16.5% (inactive)

N#C[C@H]1N[C@H](CO)[C@H]1c1ccc(C#Cc2ccccc2F)cc1
max activity (at 23.5 µM, 0% = untreated, negative = ATP loss): -26.9% (inactive)

COC(=O)C[C@@H]1CC[C@@H]2[C@@H](COc3ccc(NC(=O)Nc4ccccc4C)cc3C(=O)N2C)O1
max activity [2]: -23.1% (inactive)

Cc1ccc(C(=O)CN2C(=O)c3ccccc3S2(=O)=O)cc1
max activity [3]: 23.9% (inactive)

N#C[C@@H]1[C@H](c2ccc(C#Cc3cccc(F)c3)cc2)[C@@H](CO)N1C(=O)C1CCCC1
max activity (at 0.012 µM, 0% = untreated, negative = ATP loss): 24% (inactive)

N#C[C@H]1[C@H](c2ccc(C#Cc3ccccc3F)cc2)[C@@H](CO)N1C(=O)C1CCOCC1
max activity [7]: -21.8% (inactive)

COCCCNc1ccn2nc(-c3ccccc3)cc2n1
max activity [3]: -48% (inactive)

COc1ccc(OC)c(-c2cc(C(F)(F)F)c3c(n2)sc2c(O)cc(=O)[nH]c23)c1
max activity [5]: -37% (inactive)

N#CC1C=Cc2c(ccc3ccccc23)N1C(=O)c1ccccc1 (stereo not given)
max activity [3]: -32.3% (inactive)

O=C(C[C@@H]1C[C@H]2c3cc(NS(=O)(=O)c4ccc(F)cc4)ccc3O[C@H]2[C@H](CO)O1)NCc1ccc(-c2ccccc2)cc1
max activity [6]: -26.1% (inactive)

O=C1C(=O)N(CCS(=O)(=O)c2ccccc2)c2ccccc21
max activity [4]: 24.1% (inactive)

COc1ccc(-c2nc3c(s2)CCc2onc(-c4ccc(OC)cc4)c2-3)cc1
max activity [4]: -25.8% (inactive)

CCn1c(/C=N/NC(=O)c2ccc(OC)cc2)nc2ccccc21
max activity [1]: -35.2% (inactive)

O=C1c2ccccc2C(=O)N1CCCCNc1ccccc1
max activity [2]: -34.9% (inactive)

Cc1c(-c2nc(-c3ccc(C(C)(C)C)cc3)no2)n(C)oc1=O
max activity [1]: -27.3% (inactive)

C[C@@H]1CN([C@@H](C)CO)C(=O)c2cccc(NC(=O)Nc3ccccc3)c2O[C@@H]1CN(C)Cc1ccc(-c2ccccc2)cc1
max activity [8]: -17% (inactive)

N#C[C@H]1[C@H](c2ccc(-c3ccccc3F)cc2)[C@@H](CO)N1C(=O)c1ccccn1
max activity [8]: -27.4% (inactive)

Cc1ccc(/C=C/C(=O)N2CCN(S(=O)(=O)c3c(C)c(C)cc(C)c3C)CC2)o1
max activity [4]: -14.8% (inactive)

Cc1ccsc1C(=O)OCC(=O)c1cc(C)n(C)c1C
max activity [5]: 9.16% (inactive)

CCCCN=C(NNc1ccc(Br)cc1)C(=O)OCC
max activity [5]: -31% (inactive)

O=C1CCC2S/C(=C/Nc3ccc(C(F)(F)F)cc3)C(=O)N12 (stereo not given)
max activity [4]: 25.6% (inactive)

CN(c1ccc(NC(=O)CCc2c[nH]c3ccccc23)cc1)c1ccccn1
max activity [6]: -31.2% (inactive)

COc1ccc(Nc2oc(COc3ccccc3OC)nc2C#N)cc1
max activity [7]: -51% (inactive)

O=C(O)c1ccc(N/N=C/c2cc(Br)cs2)cc1
max activity [5]: -24.3% (inactive)

Cc1[nH]c(=S)sc1Cc1ccc(Cl)c(Cl)c1
max activity [5]: -20.8% (inactive)

COc1ccc(S(=O)(=O)N2CC[C@@H]3[C@H](CO)Nc4ccc(-c5ccc(C#N)cc5)cc4[C@@H]32)cc1
max activity [3]: -30.4% (inactive)

COC(=O)COc1ccc(-c2nccc(-c3ccccn3)n2)cc1
max activity [4]: 18.7% (inactive)

C[C@@H]1CN([C@@H](C)CO)C(=O)Cc2cc(NC(=O)Cn3cnnn3)ccc2O[C@@H]1CN(C)Cc1ccc(Oc2ccccc2)cc1
max activity [4]: 25% (inactive)

COc1cc(C(c2c(C)[nH][nH]c2=O)c2c(C)[nH][nH]c2=O)ccc1OC(C)C
max activity [1]: 22.1% (inactive)

COc1ccc(-c2cn(-c3ccc(OC)cc3)c3[n+]2-c2ccccc2CC3)cc1
max activity [4]: -23.2% (inactive)

O=C1C(=O)N(Cc2cccs2)c2ccccc21
max activity [3]: -28.1% (inactive)

CC(=O)Oc1ccc(-c2ccc(C(=O)Nc3cccc(S(=O)(=O)N4CCOCC4)c3)cc2)cc1
max activity [4]: -21.6% (inactive)

CCc1ccc(Cn2ncc3c(C(=O)O)cc(C)nc32)cc1
max activity [8]: -27.2% (inactive)

COC(=O)C[C@@H]1CC[C@@H]2[C@H](COc3ccc(NC(=O)c4ccc(F)cc4)cc3C(=O)N2C)O1
max activity [8]: -31.5% (inactive)

CC1=NC(=O)C(N=Nc2cccc(C(=O)O)c2)N1c1ccccc1 (stereo not given)
max activity [4]: -23.4% (inactive)

O=C(CNC(c1ccccc1)c1ccccc1)Nc1ccccc1-c1ccccc1
max activity [4]: 10.7% (inactive)

Cc1c(Cc2ccc3c(c2)OCO3)sc(NC(=O)C(C)(C)C)c1C#N
max activity [5]: -26.7% (inactive)

CC(Oc1cccc(Cl)c1)C(=O)NCCCCc1ccccc1 (stereo not given)
max activity [7]: 18.7% (inactive)

COc1ccc(/C=C2\SC(=O)N(CCCC(=O)Nc3cc(Cl)ccc3C(=O)O)C2=O)cc1
max activity [3]: -25.6% (inactive)

COc1cc(OC)cc(-c2cc3nc(C)c(CCC(=O)O)c(C)n3n2)c1
max activity [4]: -9.81% (inactive)

CC1=NN(c2ccc(C)cc2)C(=O)/C1=C\C=C\c1ccccc1
max activity [4]: -23.5% (inactive)

Cc1ccc(NC(=O)CCN2CCCCC2)cc1
max activity [4]: 20.8% (inactive)

COc1ccc(N=C(NN)c2ccc3ccccc3n2)cc1
max activity [6]: -15.2% (inactive)
